Measurements from US20260356851A1, “TRICYCLIC COMPOUNDS AND USES THEREOF” (HUTCHMED LIMITED, priority 2023, published 2026).
pIC50: −log10 of the molar value. Like-named read-outs stand apart in the source and are kept apart here.

Experiments:
Assay type in all cases: cell-based
[1] = target: T1, pERK1/2 (Thr202/Tyr204), NCI-1H358 (KRAS G12C) (Homo sapiens, UniProt P01116, G12C); assay: Assay of intracellular pERK1/2 (Thr202/Tyr204) phosphorylation in NCI-H358 cells (KRAS G12C)
T1 construct: pERK1/2 HTRF read-out
How it was run: (§1)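 HTRF detection of Thr202/Tyr204-phosphorylated ERK1/2 (665/615 nm ratio) in lysates from cells treated 2 days with serially 3-fold diluted compound.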

[2] = target: T2, pERK1/2 (Thr202/Tyr204), PANC-1 (KRAS G121D) (Homo sapiens, UniProt P01116, G12D); assay: Assay of intracellular pERK1/2 (Thr202/Tyr204) phosphorylation in PANC-1 cells (KRAS G12D)
T2 construct: pERK1/2 HTRF read-out
How it was run: as §1

[3] = target: T3, pERK1/2 (Thr202/Tyr204), NCI-1H441 (KRAS G12V) (Homo sapiens, UniProt P01116, G12V); assay: Assay of intracellular pERK1/2 (Thr202/Tyr204) phosphorylation in NCI-H441 cells (KRAS G12V)
T3 construct: pERK1/2 HTRF read-out
How it was run: as §1

[4] = pERK1/2, 2 days, read-out: NCI-H358 (KRAS G12C) IC50
[5] = pERK1/2, 2 days, read-out: PANC-1 (KRAS G12D) IC50
[6] = pERK1/2, 2 days, read-out: NCI-H441 (KRAS G12V) IC50
[7] = read-out: NCI-H358 (KRAS G12C) IC50, pERK1/2, 2 days
[8] = read-out: PANC-1 (KRAS G12D) IC50, pERK1/2, 2 days
[9] = read-out: NCI-H441 (KRAS G12V) IC50, pERK1/2, 2 days

T1 sequence (P01116 1-188 isoform P01116-2 G12C): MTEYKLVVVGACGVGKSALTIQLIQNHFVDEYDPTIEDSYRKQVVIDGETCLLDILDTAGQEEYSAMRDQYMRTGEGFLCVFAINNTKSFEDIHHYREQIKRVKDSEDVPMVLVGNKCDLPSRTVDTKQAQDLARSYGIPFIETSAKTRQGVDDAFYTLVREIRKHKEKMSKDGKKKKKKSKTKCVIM
T3 sequence (P01116 1-188 isoform P01116-2 G12V): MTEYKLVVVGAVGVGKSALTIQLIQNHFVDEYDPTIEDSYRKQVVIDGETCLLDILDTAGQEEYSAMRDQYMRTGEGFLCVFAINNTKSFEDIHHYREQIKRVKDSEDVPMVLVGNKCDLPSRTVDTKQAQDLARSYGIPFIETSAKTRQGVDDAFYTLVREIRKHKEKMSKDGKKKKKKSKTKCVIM
T2 sequence (P01116 1-188 isoform P01116-2 G12D): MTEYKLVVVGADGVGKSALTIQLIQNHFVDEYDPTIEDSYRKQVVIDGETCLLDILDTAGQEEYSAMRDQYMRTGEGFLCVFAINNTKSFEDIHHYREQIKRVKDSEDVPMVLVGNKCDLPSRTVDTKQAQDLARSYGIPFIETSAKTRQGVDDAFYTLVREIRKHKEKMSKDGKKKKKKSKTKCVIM

Row | pIC50 [1, 4] | pIC50 [2, 5] | pIC50 [3, 6] | Structure (SMILES) | pIC50 [1, 7] | pIC50 [2, 8] | pIC50 [3, 9]
1 | 9.30 | 8.52 | 9.00 | CC(c1cccnc1N)N1c2nc(OC[C@@]34CCCN3C[C@H](F)C4)nc3c(F)c(-c4c(C(F)(F)F)ccc5[nH]ncc45)nc(c23)OC[C@@H]1C (stereo partly drawn) [Compound 297] |  |  | 
2 | < 7.00 | < 7.00 | < 7.00 | CCc1c(F)ccc2cc(O)cc(-c3nc4c5c(nc(OC[C@@]67CCCN6C[C@H](F)C7)nc5c3F)N(C(C)c3ccccc3N)[C@@H](C)CO4)c12 (stereo partly drawn) [Compound 298] |  |  | 
3 | 9.22 | 9.30 | 8.70 | CCc1c(F)ccc2cc(O)cc(-c3nc4c5c(nc(OC[C@@]67CCCN6C[C@H](F)C7)nc5c3F)N(C(C)c3cccnc3NC(=O)[C@H](C)N)[C@@H](C)CO4)c12 (stereo partly drawn) [Compound 300] |  |  | 
4 | 9.52 | 9.52 | 9.22 | CC(c1cccnc1N)N1c2nc(OC[C@@]34CCCN3C[C@H](F)C4)nc3c(F)c(-c4cc(N)cc(Cl)c4C4CC4)nc(c23)OC[C@@H]1C (stereo partly drawn) [Compound 305] |  |  | 
5 | 9.30 | 8.22 | 9.10 | Cc1nc(N)cc(-c2nc3c4c(nc(OC[C@@]56CCCN5C[C@H](F)C6)nc4c2F)N(C(C)c2cccnc2N)[C@@H](C)CO3)c1C(F)(F)F (stereo partly drawn) [Compound 311] |  |  | 
6 | 9.52 | 9.52 | 9.40 | Cc1cc2[nH]ncc2c(-c2nc3c4c(nc(OC[C@@]56CCCN5C[C@H](F)C6)nc4c2F)N(C(C)c2cccnc2N)[C@@H](C)CO3)c1C(F)(F)F (stereo partly drawn) [Compound 312] |  |  | 
7 | 9.30 | 8.52 | 9.00 | Cc1cc2[nH]ncc2c(-c2nc3c4c(nc(OC[C@@]56CCCN5C[C@H](F)C6)nc4c2F)N(C(C)c2cccnc2N)[C@@H](C)CO3)c1Cl (stereo partly drawn) [Compound 313] |  |  | 
8 | 8.70 | 8.22 | 8.40 | CC(c1cccnc1N)N1c2nc(OC[C@@]34CCCN3C[C@H](F)C4)nc3c(F)c(-c4cc(O)cc(Cl)c4C(F)(F)F)nc(c23)OC[C@@H]1C (stereo partly drawn) [Compound 315] |  |  | 
9 | 9.00 | 7.43 | 8.15 | Cc1ccc2[nH]ncc2c1-c1nc2c3c(nc(OC[C@@]45CCCN4C[C@H](F)C5)nc3c1F)N(C(C)c1cccnc1N)[C@@H](C)CO2 (stereo partly drawn) [Compound 318] |  |  | 
10 | 9.05 | 8.00 | 9.00 | Cc1ccc2[nH]nc(C)c2c1-c1nc2c3c(nc(OC[C@@]45CCCN4C[C@H](F)C5)nc3c1F)N(C(C)c1cccnc1N)[C@@H](C)CO2 (stereo partly drawn) [Compound 319] |  |  | 
11 | 9.05 | 7.55 | 8.40 | CC(c1cccnc1N)N1c2nc(OC[C@@]34CCCN3C[C@H](F)C4)nc3c(F)c(-c4ccc(F)c5sc(N)nc45)nc(c23)OC[C@@H]1C (stereo partly drawn) [Compound 320] |  |  | 
12 | 9.00 | 7.44 | 8.15 | CC(c1cccnc1N)N1c2nc(OC[C@@]34CCCN3C[C@H](F)C4)nc3c(F)c(-c4c(Cl)ccc5[nH]ncc45)nc(c23)OC[C@@H]1C (stereo partly drawn) [Compound 321] |  |  | 
13 | 7.68 | < 7.00 | 7.01 | CC(c1cccnc1N)N1c2nc(OC[C@@]34CCCN3C[C@H](F)C4)nc3c(F)c(-c4cc(O)cc(Cl)c4C#N)nc(c23)OC[C@@H]1C (stereo partly drawn) [Compound 322] |  |  | 
14 | 7.55 | < 7.00 | < 7.00 | Cc1c(-c2nc3c4c(nc(OC[C@@]56CCCN5C[C@H](F)C6)nc4c2F)N(C(C)c2cccnc2N)[C@@H](C)CO3)ccc2cn[nH]c12 (stereo partly drawn) [Compound 324] |  |  | 
15 | 7.55 | < 7.00 | 7.36 | CC(c1cccnc1N)N1c2nc(OC[C@@]34CCCN3C[C@H](F)C4)nc3c(F)c(-c4cc5[nH]ncc5cc4C(F)(F)F)nc(c23)OC[C@@H]1C (stereo partly drawn) [Compound 325] |  |  | 
16 | 9.00 | 8.52 | 8.52 | Cc1cc(N)nc(-c2nc3c4c(nc(OC[C@@]56CCCN5C[C@H](F)C6)nc4c2F)N(C(C)c2cccnc2N)[C@@H](C)CO3)c1C(F)(F)F (stereo partly drawn) [Compound 326, (*)6-((9S)-10-(1-(2-aminopyridin-3-yl)ethyl)-4-fluoro-2-(((2R,7aS)-2-fluorotetrahydro-1H-pyrrolizin-7a(5H)-yl)methoxy)-9-methyl-9,10-dihydro-8H-7-oxa-1,3,6,10-tetraazacyclohepta[de]naphthalen-5-yl)-4-methyl-5-(trifluoromethyl)pyridin-2-amine] |  |  | 
17 | 9.30 | 9.10 | 9.10 | CC(c1cccnc1N)N1c2nc(OC[C@@]34CCCN3C[C@H](F)C4)nc3c(F)c(-c4ccc(F)c5sc(N)c(C#N)c45)nc(c23)OC[C@@H]1C (stereo partly drawn) [Compound 328] |  |  | 

The next lines start with the compound.

Row | Structure (SMILES) | pIC50 [1, 4] | pIC50 [2, 5] | pIC50 [3, 6] | pIC50 [1, 7] | pIC50 [2, 8] | pIC50 [3, 9]
18 | CC(c1cccnc1N)N1c2nc(OC[C@@H]3C[C@@H](F)CN3C)nc3c(F)c(-c4cc(O)cc(Cl)c4C4CC4)nc(c23)OC[C@@H]1C (stereo partly drawn) [Compound 291] | 10.00 | 9.00 | 9.52 |  |  | 
19 | CCNC(=O)Oc1cc(Cl)c(C2CC2)c(-c2nc3c4c(nc(OC[C@@]56CCCN5C[C@H](F)C6)nc4c2F)N(C(C)c2cccnc2N)[C@@H](C)CO3)c1 (stereo partly drawn) [Compound 293, (*)3-((9S)-10-(1-(2-aminopyridin-3-yl)ethyl)-4-fluoro-2-(((2R,7aS)-2-fluorotetrahydro-1H-pyrrolizin-7a(5H)-yl)methoxy)-9-methyl-9,10-dihydro-8H-7-oxa-1,3,6,10-tetraazacyclohepta[de]naphthalen-5-yl)-5-chloro-4-cyclopropylphenyl ethylcarbamate acetate] |  |  |  | 9.00 | 9.30 | 9.00
20 | CCNC(=O)Oc1cc(-c2nc3c4c(nc(OC[C@@]56CCCN5C[C@H](F)C6)nc4c2F)N(C(C)c2cccnc2N)[C@@H](C)CO3)c2c(CC)c(F)ccc2c1 (stereo partly drawn) [Compound 294] |  |  |  | 9.10 | 9.30 | 8.70
21 | CNC(=O)Oc1cc(Cl)c(C2CC2)c(-c2nc3c4c(nc(OC[C@@]56CCCN5C[C@H](F)C6)nc4c2F)N(C(C)c2cccnc2N)[C@@H](C)CO3)c1 (stereo partly drawn) [Compound 295] |  |  |  | 9.40 | 9.30 | 9.00
22 | CCc1c(F)ccc2cc(OC(=O)NC)cc(-c3nc4c5c(nc(OC[C@@]67CCCN6C[C@H](F)C7)nc5c3F)N(C(C)c3cccnc3N)[C@@H](C)CO4)c12 (stereo partly drawn) [Compound 296] |  |  |  | 9.30 | 9.52 | 8.70
23 | CCc1c(F)ccc2cc(OC(=O)N(C)C)cc(-c3nc4c5c(nc(OC[C@@]67CCCN6C[C@H](F)C7)nc5c3F)N(C(C)c3cccnc3N)[C@@H](C)CO4)c12 (stereo partly drawn) [Compound 301] |  |  |  | 7.60 | 7.11 | 7.14
24 | C/C=C/c1cc(N)cc(-c2nc3c4c(nc(OC[C@@]56CCCN5C[C@H](F)C6)nc4c2F)N(C(C)c2cccnc2N)[C@@H](C)CO3)c1C(F)(F)F (stereo partly drawn) [Compound 302] | < 7.00 | < 7.00 | < 7.00 |  |  | 
25 | CCc1c(F)ccc2cc(OC(=O)N3CCC3)cc(-c3nc4c5c(nc(OC[C@@]67CCCN6C[C@H](F)C7)nc5c3F)N(C(C)c3cccnc3N)[C@@H](C)CO4)c12 (stereo partly drawn) [Compound 304] |  |  |  | 7.68 | 7.26 | 7.34
26 | CC(c1cccnc1N)N1c2nc(OC[C@@]34CCCN3C[C@H](F)C4)nc3c(F)c(-c4cc(N)cc(Cl)c4)nc(c23)OC[C@@H]1C (stereo partly drawn) [Compound 306] | 7.80 | 7.03 | 7.40 |  |  | 
27 | CCc1c(F)ccc2cc(OC(=O)N3CCOCC3)cc(-c3nc4c5c(nc(OC[C@@]67CCCN6C[C@H](F)C7)nc5c3F)N(C(C)c3cccnc3N)[C@@H](C)CO4)c12 (stereo partly drawn) [Compound 307] |  |  |  | 7.89 | 7.80 | 7.64
28 | CC(c1cccn2ccnc12)N1c2nc(OC[C@@]34CCCN3C[C@H](F)C4)nc3c(F)c(-c4cc(O)cc5ccc(F)c(F)c45)nc(c23)OC[C@@H]1C (stereo partly drawn) [Compound 310, (*)5,6-Difluoro-4-((9S)-4-fluoro-2-(((2R,7aS)-2-fluorotetrahydro-1H-pyrrolizin-7a(5H)-yl)methoxy)-10-(1-(imidazo[1,2-a]pyridin-8-yl)ethyl)-9-methyl-9,10-dihydro-8H-7-oxa-1,3,6,10-tetraazacyclohepta[de]naphthalen-5-yl)naphthalen-2-ol] |  |  |  | < 7.00 | < 7.00 | < 7.00
29 | Cc1cc2cn[nH]c2cc1-c1nc2c3c(nc(OC[C@@]45CCCN4C[C@H](F)C5)nc3c1F)N(C(C)c1cccnc1N)[C@@H](C)CO2 (stereo partly drawn) [Compound 314] | < 7.00 | < 7.00 | < 7.00 |  |  | 
30 | COc1cc2cn[nH]c2cc1-c1nc2c3c(nc(OC[C@@]45CCCN4C[C@H](F)C5)nc3c1F)N(C(C)c1cccnc1N)[C@@H](C)CO2 (stereo partly drawn) [Compound 316] | < 7.00 | < 7.00 | < 7.00 |  |  | 
31 | Cc1cc2[nH]ncc2c(-c2nc3c4c(nc(OC[C@@]56CCCN5C[C@H](F)C6)nc4c2F)N(C(C)c2cccnc2N)[C@@H](C)CO3)c1C1CC1 (stereo partly drawn) [Compound 317] | 9.40 | 9.52 | 9.10 |  |  | 
32 | CC(c1cccnc1N)N1c2nc(OC[C@@]34CCCN3C[C@H](F)C4)nc3c(F)c(-c4c(C(F)(F)F)cnc5[nH]ccc45)nc(c23)OC[C@@H]1C (stereo partly drawn) [Compound 323] | 9.22 | 8.00 | 8.70 |  |  | 
33 | CC(c1cccnc1N)N1c2nc(OC[C@@]34CCCN3C[C@H](F)C4)nc3c(F)c(-c4ccc(F)c5sc(N)c(C(N)=O)c45)nc(c23)OC[C@@H]1C (stereo partly drawn) [Compound 327] | < 7.00 | < 7.00 | < 7.00 |  |  | 
